Test systems include NCI-H23 lung; SK-MEL-5 melanoma; MCF7 breast; T-47D breast; NCI-H226 lung; DU-145 prostate; HCT-15 colon; TK-10 renal; ACHN renal; SF-268 CNS; RPMI-8226 leukemia; IGROV1 ovarian; BT-549 breast; NCI-H460 lung; LOX IMVI melanoma; OVCAR-8 ovarian; M14 melanoma; HCC-2998 colon.
What all share (assay): NCI-60 cell line screen, 48 h

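Five compound concentrations were applied to cells in 96-well plates for 48 hours; endpoints were derived by simple linear interpolation of the resulting dose-response curve. Definition used: TGI = concentration required for complete inhibition of growth.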

As for `COc1ccc(Nc2nc(N)c(C(=O)c3ccccc3)s2)cc1`, the TGI in the assay on NCI-H23 lung is > 60.3 µM; with SK-MEL-5 melanoma it was 4.01 µM; with MCF7 breast, > 100 µM; in the assay with T-47D breast it was > 100 µM; in the assay on NCI-H226 lung, 29.5 µM; with DU-145 prostate it was > 72.8 µM. Further, the TGI with HCT-15 colon is 26.2 µM; in the assay on TK-10 renal it was > 100 µM; in the assay on ACHN renal, > 100 µM; in the assay on SF-268 CNS, > 58.1 µM; with RPMI-8226 leukemia it was 32.7 µM; in the assay on IGROV1 ovarian, 37 µM. Besides, the TGI in the assay on BT-549 breast is > 84.5 µM; in the assay on NCI-H460 lung, 19.9 µM; in the assay with LOX IMVI melanoma, > 100 µM; with OVCAR-8 ovarian it was > 100 µM.
On to `CSc1nc(O)c(/C=C2\C=Nc3ccccc32)[nH]1`, for which the TGI in the assay with NCI-H23 lung, in the assay with SK-MEL-5 melanoma, in the assay with MCF7 breast, with T-47D breast, with NCI-H226 lung and in the assay on DU-145 prostate was > 100 µM each time. The TGI in the assay with HCT-15 colon was > 100 µM; in the assay on M14 melanoma it was > 100 µM; in the assay with TK-10 renal, > 100 µM; in the assay on ACHN renal it was > 100 µM; in the assay with SF-268 CNS it was > 100 µM; in the assay on HCC-2998 colon, 90.6 µM. For the same molecule, the TGI in the assay with RPMI-8226 leukemia, in the assay on IGROV1 ovarian, with BT-549 breast, in the assay on NCI-H460 lung, in the assay with LOX IMVI melanoma and in the assay with OVCAR-8 ovarian was > 100 µM throughout.
As for `COc1cc2c(cc1OC)C(Cc1ccccc1CCCl)=NCC2`, the TGI in the assay with NCI-H23 lung is > 100 µM; in the assay on SK-MEL-5 melanoma, 54.3 µM; in the assay on MCF7 breast, > 100 µM; in the assay with T-47D breast, > 100 µM; in the assay with NCI-H226 lung, > 100 µM; in the assay with DU-145 prostate, > 100 µM. Besides, the TGI in the assay with HCT-15 colon, in the assay with M14 melanoma, with TK-10 renal, with ACHN renal, with SF-268 CNS and in the assay with HCC-2998 colon was > 100 µM each time. Moreover, the TGI was 98.1 µM in the assay with RPMI-8226 leukemia; > 100 µM in the assay with IGROV1 ovarian; > 100 µM with BT-549 breast; > 100 µM in the assay with NCI-H460 lung; > 100 µM with OVCAR-8 ovarian.
As to `Cc1cc(O)c(/C=N/c2nc(-c3cccc([N+](=O)[O-])c3)cs2)c(=O)o1`, the TGI in the assay with NCI-H23 lung, in the assay on SK-MEL-5 melanoma, in the assay on MCF7 breast, in the assay with T-47D breast, in the assay on NCI-H226 lung and in the assay with DU-145 prostate was > 100 µM throughout. In addition, the TGI with HCT-15 colon was > 100 µM; with M14 melanoma, > 100 µM; with TK-10 renal it was 26.6 µM; in the assay on ACHN renal it was > 100 µM; with HCC-2998 colon, > 100 µM; with IGROV1 ovarian, > 100 µM. Further, the TGI in the assay on BT-549 breast was 73.5 µM; with NCI-H460 lung it was > 100 µM; in the assay with LOX IMVI melanoma it was > 100 µM; in the assay on OVCAR-8 ovarian, > 100 µM.
As to `CC(C)CC1[C@@H](OCc2ccccc2)COS(=O)(=O)N1Cc1ccccc1` (stereo partly drawn), the TGI with NCI-H23 lung is 75.2 µM; with SK-MEL-5 melanoma it was > 100 µM; with MCF7 breast it was > 100 µM; in the assay with T-47D breast, > 100 µM; in the assay on NCI-H226 lung, > 100 µM; in the assay on DU-145 prostate, > 100 µM. For the same molecule, the TGI in the assay on HCT-15 colon, in the assay on M14 melanoma, in the assay with TK-10 renal, with ACHN renal, in the assay on SF-268 CNS and in the assay on RPMI-8226 leukemia was > 100 µM in each case. The TGI in the assay on IGROV1 ovarian, in the assay with BT-549 breast, in the assay on NCI-H460 lung, in the assay with LOX IMVI melanoma and in the assay on OVCAR-8 ovarian was > 100 µM in each case.
As for `O=C(O)c1cc(O)c2c(c1)Cc1cccc(O)c1C2=O`, the TGI in the assay with NCI-H23 lung is > 100 µM; in the assay with SK-MEL-5 melanoma, 40 µM; with MCF7 breast it was > 100 µM; in the assay with T-47D breast it was > 100 µM; in the assay with NCI-H226 lung, 59.5 µM; with DU-145 prostate, > 100 µM. Also, the TGI with HCT-15 colon is 33 µM; in the assay with M14 melanoma, 55.2 µM; in the assay with TK-10 renal, > 100 µM; in the assay with ACHN renal, 34.8 µM; in the assay on SF-268 CNS, 56.6 µM; in the assay with HCC-2998 colon, > 100 µM. The TGI with RPMI-8226 leukemia is 53.2 µM; in the assay with BT-549 breast it was > 100 µM; in the assay with NCI-H460 lung it was 65.6 µM; in the assay with OVCAR-8 ovarian, 55.8 µM.
Consider `COc1ccc(C2SCC(=O)N2NC(=O)C(C)Oc2ccccc2Cl)cc1` (stereo not drawn), for which the TGI was > 100 µM in the assay on NCI-H23 lung; 65.6 µM with SK-MEL-5 melanoma; > 100 µM in the assay with MCF7 breast; > 100 µM in the assay on T-47D breast; > 100 µM in the assay on NCI-H226 lung; > 100 µM in the assay with DU-145 prostate. The TGI in the assay with HCT-15 colon, in the assay on M14 melanoma, in the assay with TK-10 renal, in the assay on ACHN renal, in the assay on SF-268 CNS and in the assay on HCC-2998 colon was > 100 µM in each case. The TGI with RPMI-8226 leukemia is > 100 µM; in the assay on IGROV1 ovarian, > 100 µM; with BT-549 breast, > 100 µM; with NCI-H460 lung it was > 100 µM; in the assay with LOX IMVI melanoma, 62 µM; with OVCAR-8 ovarian, > 100 µM.

Values taken from PubChem BioAssay (NCI).
